Assay results published in US11466006B2, “Dual selective PI3 delta and gamma kinase inhibitors” (Rhizen Pharmaceuticals SA, priority 2013, dated 2022).

Tests used:
[1] = system: TNF-α; assay: Lipopolysaccharide induced TNF-α production; assay type: in vivo, rat
Method: Fasted female wistar rats were randomized into different groups depending on their body weights. Test compound (Compound A1) was prepared as a suspension in a vehicle consisting of 0.5% methylcellulose. The compound or vehicle was administered by oral gavage in a volume of 10 mL/kg. LPS solution was administered intraperitoneally one hour after compound administration at a dose of 0.3 mg/kg. Blood was collected in serum separator tubes via cardiac puncture ninety minutes after LPS injection. Serum was separated and stored at −20° C. and will be analysed for TNFα by ELISA.

[2] = system: caspase-3 activity; assay: Apoptosis in leukemic cell lines (in-situ Caspase 3 kit); assay type: cell-based; settings: MOLT-4, Jurkat, CCRF-CEM, Hut-78 & HuT-102; 24 hrs
Method: Apoptosis in leukemic cells was determined using an in-situ Caspase 3 kit (Millipore, US) as outlined below: • Seed leukemic cells—at a density of 1×10^6 cells/well in a 6 well plate • Add test compound/DMSO at desired concentrations • Incubate the plate for 24 hrs at 37° C. in 5% CO2 incubator • Collect cells in a 2 ml centrifuge tube • Add 1.6 μL of freshly prepared 5× FLICA reagent and mix cells by slightly flicking the tubes • Incubate tubes for 1 hour at 37° C. under 5% CO2 • Add 2 ml of 1× wash buffer to each tube and mix • Centrifuge cells at <400× g for 5 minutes at room temperature. • Carefully remove and discard supernatant, and gently vortex cell pellet to disrupt any cell-to-cell clumping. • Resuspend cell pellet in 300 ul of 1× wash buffer • Place 100 μL of each cell suspension into each of two wells of a black microtiter plate. Avoid creation of bubbles. • Read […] of each microwell using an excitation wavelength of 490 nm and an emission wavelength of 520 nm • Percent increase in caspase-3 activity manifested by an increase in fluorescence compared to the control blank is to be calculated.

[3] = biological target: PI3Kδ (Homo sapiens, UniProt O00329); assay: Fluorescent (HTRF) determination of PI3 kinase enzyme activity, delta isoform; assay type: biochemical; set-up: purchased Millipore (assay kit); settings: Table 1, HTRF; read-out: IC50 (nM) Pi3Kδ
Sequence of PI3Kδ (O00329 whole entry, canonical isoform): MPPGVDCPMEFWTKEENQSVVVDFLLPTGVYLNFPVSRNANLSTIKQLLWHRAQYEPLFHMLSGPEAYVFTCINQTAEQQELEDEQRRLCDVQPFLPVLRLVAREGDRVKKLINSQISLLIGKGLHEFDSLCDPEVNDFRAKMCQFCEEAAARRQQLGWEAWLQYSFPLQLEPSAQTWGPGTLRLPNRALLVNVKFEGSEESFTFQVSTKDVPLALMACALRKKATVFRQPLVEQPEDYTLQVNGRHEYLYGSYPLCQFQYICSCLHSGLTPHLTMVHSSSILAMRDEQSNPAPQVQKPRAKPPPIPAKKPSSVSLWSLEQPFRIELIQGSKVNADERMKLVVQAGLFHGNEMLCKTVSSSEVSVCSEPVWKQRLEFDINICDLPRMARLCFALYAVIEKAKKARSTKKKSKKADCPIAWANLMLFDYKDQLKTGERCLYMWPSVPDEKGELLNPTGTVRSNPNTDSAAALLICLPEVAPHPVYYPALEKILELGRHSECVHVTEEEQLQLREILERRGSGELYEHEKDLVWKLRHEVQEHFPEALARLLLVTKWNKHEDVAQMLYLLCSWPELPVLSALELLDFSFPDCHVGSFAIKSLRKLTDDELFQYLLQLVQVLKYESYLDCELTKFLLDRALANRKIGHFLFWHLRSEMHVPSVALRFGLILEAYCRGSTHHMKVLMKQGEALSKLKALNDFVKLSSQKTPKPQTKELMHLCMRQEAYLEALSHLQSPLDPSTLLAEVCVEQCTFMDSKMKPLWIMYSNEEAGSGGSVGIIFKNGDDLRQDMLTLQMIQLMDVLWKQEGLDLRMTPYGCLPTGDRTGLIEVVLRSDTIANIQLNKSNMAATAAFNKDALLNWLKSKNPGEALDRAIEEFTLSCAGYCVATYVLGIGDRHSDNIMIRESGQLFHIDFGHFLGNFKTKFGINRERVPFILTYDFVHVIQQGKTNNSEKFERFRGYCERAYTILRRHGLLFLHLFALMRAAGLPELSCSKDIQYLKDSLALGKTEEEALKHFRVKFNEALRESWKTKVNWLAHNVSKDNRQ
Sequence of PI3Kδ (P27986 whole entry partner, canonical isoform): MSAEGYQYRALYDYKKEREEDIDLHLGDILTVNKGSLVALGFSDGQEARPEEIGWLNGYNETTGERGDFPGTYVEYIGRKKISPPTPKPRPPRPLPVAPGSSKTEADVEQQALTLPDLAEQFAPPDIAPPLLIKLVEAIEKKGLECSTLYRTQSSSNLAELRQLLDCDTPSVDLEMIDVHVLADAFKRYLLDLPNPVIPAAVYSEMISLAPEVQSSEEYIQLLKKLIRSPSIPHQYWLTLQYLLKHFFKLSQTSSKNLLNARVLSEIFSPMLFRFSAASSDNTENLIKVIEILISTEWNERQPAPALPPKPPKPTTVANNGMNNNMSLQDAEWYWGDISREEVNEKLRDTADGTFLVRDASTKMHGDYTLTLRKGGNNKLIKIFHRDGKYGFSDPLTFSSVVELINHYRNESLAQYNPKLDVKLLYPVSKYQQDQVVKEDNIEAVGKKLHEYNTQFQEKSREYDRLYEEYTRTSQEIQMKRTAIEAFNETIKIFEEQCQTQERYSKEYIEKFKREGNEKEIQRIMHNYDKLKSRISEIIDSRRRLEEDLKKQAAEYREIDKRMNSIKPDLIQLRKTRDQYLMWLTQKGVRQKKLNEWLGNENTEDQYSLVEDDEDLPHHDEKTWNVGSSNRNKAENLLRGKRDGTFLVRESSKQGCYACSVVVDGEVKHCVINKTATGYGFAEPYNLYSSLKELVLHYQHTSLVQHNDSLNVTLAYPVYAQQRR
Source text: (§1) Phosphoinositide 3 kinases (PI3K) belong to a class of lipid kinases that play a critical role in the regulation of several key cellular processes. The PI3K are capable of phosphorylating the 3-hydroxy position of phosphoinositols thereby generating second messengers involved in downstream signalling events. The homogenous time resolved fluorescence (HTRF) assay allows detection of 3,4,5-triphosphate (PIP3) formed as a result of phosphorylation of phosphotidylinositol 4,5-biphosphate (PIP2) by PI3K isoforms such as α, β, γ or δ.
(§2) PI3K isoform activity for α, β, γ or δ was determined using a PI3K human HTRF™ Assay Kit (Millipore, Billerica, Mass.) with modifications. All incubations were carried out at room temperature. Briefly, 0.5 μl of 40× inhibitor (in 100% DMSO) or 100% DMSO were added to each well of a 384-well white plate (Greiner Bio-One, Monroe, N.C.) containing 14.5 μl 1× reaction buffer /PIP2 (10 mM MgCl2, 5 mM DTT, 1.38 μM PIP2) mix with or without enzyme, followed by 5 μl/well of 400 μM ATP and incubated for an additional 30 minutes. Reaction was terminated by adding 5 μl/well stop solution (Millipore, Billerica, Mass.). […] HRTF ratio was measured on a microplate reader (BMG Labtech., Germany) at an excitation wavelength of 337 nm and emission wavelengths of 665 and 615 nm with an integration time of 400 msec counting delay of 50 msec.

[4] = system: Female Wistar rats; assay: Lipopolysaccharide-induced rat air pouch model of inflammation; assay type: in vivo; settings: Neutrophil, oral, 1 h before LPS, pouch fluid at 6 h, read-out: ED50, reduction of neutrophil migration into the rat air pouch
Method: Female Wistar rats (175-200 g) were acclimatized for seven days prior to the start of the experiment Animals were randomly distributed to various groups based on their body weights Animals were anaesthetised with ether and subcutaneous air pouches were made by injecting 20 ml of sterile air under the skin in the intra-scapular area (day 0) and maintained with a second 10-ml injection of sterile-filtered air on day 4. On day 6, oral treatment was commenced 1 h prior to induction of inflammation by s.c. injection of LPS solution on day 6. A volume of 5-ml of LPS solution dissolved in sterile saline (100 μg/kg) was injected into each pouch. Samples of pouch fluid were taken at 6 h after administration of LPS by flushing the pouch with 5 ml of sterile saline and withdrawing 4 ml of fluid. The numbers of leukocytes present in pouch fluid was determined microscopically using a haemocytometer. Differential cell content was determined by microscopic examination of fluid smears stained with Diff-Quik.

[5] = biological target: T1, Pi3K α (Homo sapiens, UniProt P42336); assay: Fluorescent (HTRF) determination of PI3 kinase enzyme activity, alpha isoform; assay type: biochemical; settings: Table 1, HTRF
T1 construct: purchased Millipore (assay kit)
T1 sequence (P42336 whole entry, canonical isoform): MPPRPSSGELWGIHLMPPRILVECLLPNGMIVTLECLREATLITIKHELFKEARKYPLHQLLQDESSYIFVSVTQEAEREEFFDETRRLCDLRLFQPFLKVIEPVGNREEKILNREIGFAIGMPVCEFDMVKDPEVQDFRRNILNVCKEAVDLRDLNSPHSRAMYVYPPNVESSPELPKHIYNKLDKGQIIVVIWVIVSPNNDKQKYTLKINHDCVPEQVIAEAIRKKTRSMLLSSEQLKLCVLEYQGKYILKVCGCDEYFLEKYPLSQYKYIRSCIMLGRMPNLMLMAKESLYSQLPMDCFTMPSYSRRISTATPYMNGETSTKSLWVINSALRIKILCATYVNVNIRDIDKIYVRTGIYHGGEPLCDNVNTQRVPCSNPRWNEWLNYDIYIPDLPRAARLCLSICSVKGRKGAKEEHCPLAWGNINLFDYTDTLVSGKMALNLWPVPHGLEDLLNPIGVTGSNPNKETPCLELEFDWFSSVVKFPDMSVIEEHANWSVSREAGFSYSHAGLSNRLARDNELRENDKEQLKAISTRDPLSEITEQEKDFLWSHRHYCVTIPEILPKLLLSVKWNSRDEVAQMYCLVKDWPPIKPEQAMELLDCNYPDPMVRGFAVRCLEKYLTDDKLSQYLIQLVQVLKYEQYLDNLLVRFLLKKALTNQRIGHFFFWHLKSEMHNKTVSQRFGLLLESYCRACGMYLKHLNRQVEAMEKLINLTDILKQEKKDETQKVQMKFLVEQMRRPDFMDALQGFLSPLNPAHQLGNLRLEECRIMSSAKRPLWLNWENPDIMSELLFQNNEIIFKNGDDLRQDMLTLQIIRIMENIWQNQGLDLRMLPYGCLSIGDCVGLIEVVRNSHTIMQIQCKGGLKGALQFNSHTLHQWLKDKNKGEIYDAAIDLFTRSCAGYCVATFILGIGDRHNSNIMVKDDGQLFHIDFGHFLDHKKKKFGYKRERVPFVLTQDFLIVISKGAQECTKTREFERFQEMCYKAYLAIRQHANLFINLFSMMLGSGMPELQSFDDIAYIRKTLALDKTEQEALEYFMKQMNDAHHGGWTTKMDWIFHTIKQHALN
T1 sequence (P27986 whole entry partner, canonical isoform): as the sequence (P27986 whole entry partner, canonical isoform) above
Source text: as §1, §2

[6] = system: ovalbumin sensitized mice; assay: Murine asthma model (ovalbumin sensitized mice); assay type: in vivo, mouse; settings: 3 mg/kg oral
Source text: Airway inflammation and hyper-responsiveness (AHR) are hallmarks and distinguishing features of bronchial asthma. Provocation of pre-sensitized mice with the same allergen induces airway inflammation with preferential eosinophilic infiltration and, as a consequence, AHR. Pulmonary eosinophilia and airway remodelling in conjunction with altered neural control of airway tone and airway epithelial desquamation may contribute to AHR in asthma. After the quarantine period, based on their body weights, mice were randomized and divided into four groups (n=7). Tails were marked with an indelible marking pen for identification. On day 0, weights were recorded and animals were sensitized with 100 μg of Ovalbumin and 10 mg of alum solution (0.2 mL) intraperitoneally. On day 7 and day 14, the above sensitization protocol was repeated. […] On day 24, 25, and 26, after the treatment with test compound by oral gavage, 30 mins later animals were exposed to 10% w/v Ovalbumin challenge. […] Forty eight hours after last OVA challenge, airway hyperresponsiveness was measured by whole body plethysmograph against cumulative doses of methacholine challenge (2.5, 10, 50 and 100 mg/ml), after measuring the airway response, blood samples and BAL fluid was collected. Samples were analysed for total cell count by using neubuear chamber under microscope and differential leukocyte count was done manually.

IC50 [3]: 23.8 nM
IC50 [5]: > 10000 nM
Structure (SMILES): CC[C@H](Nc1ncnc2[nH]cnc12)c1oc2ccccc2c(=O)c1-c1cccc(F)c1 [Compound A1, (S)-2-(1-(9H-purin-6-ylamino)propyl)-3-(3-fluorophenyl)-4H-chromen-4-one]
percent inhibition of plasma TNFα ([1]; 1 mg/kg po): 5%
percent inhibition of plasma TNFα ([1]; 3 mg/kg po): 15%
percent inhibition of plasma TNFα ([1]; 10 mg/kg po): 40%
caspase-3 activity [2]: dose-dependent induction
ED50 [4]: 2.6 mg/kg
airway hyperresponsiveness against methacholine challenge [6]: significant reduction
eosinophil infiltration into the bronchoalveolar lavage fluid [6]: significant inhibition
